From the supplement of paper PMC4862054

Legend:
Assay in all cases: drug sensitivity score (DSS), CellTox Green (DSS (AUC-based score)); higher = stronger drug effect (viability inhibition or cytotoxicity); extreme values may be limits of the assay
Conditions in all cases: incubation time: 72 h
CAL-51 = tested on: CAL-51
In short: (§1)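 Using 20 µl of cell suspension per well, breast cancer cell lines were seeded into 384-well plates pre-loaded with compound at 5 concentrations in 10-fold steps across a compound-specific 10,000-fold range. Incubation lasted 72 h, after which CellTox Green fluorescence at 485/520 nm and then CellTiter-Glo luminescence, following 10 min at room temperature, were recorded. Each plate was normalised to 0.1 % DMSO and a positive kill control before the drug sensitivity score was derived from the area under the fitted dose-response curve.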

DU-4475 = tested on: DU-4475
In short: as §1

CAL-148 = tested on: CAL-148
In short: as §1

CAL-85-1 = tested on: CAL-85-1
In short: as §1

MDA-MB-468 = tested on: MDA-MB-468
In short: as §1

HCC1143 = tested on: HCC1143
In short: as §1

CAL-120 = tested on: CAL-120
In short: as §1

Hs578T = tested on: Hs578T
In short: as §1

MCF-10A = tested on: MCF-10A
In short: as §1

MFM-223 = tested on: MFM-223
In short: as §1

MDA-MB-453 = tested on: MDA-MB-453
In short: as §1

BT-474 = tested on: BT-474
In short: as §1

Row | SMILES | drug sensitivity score (CAL-51) | drug sensitivity score (DU-4475) | drug sensitivity score (CAL-148) | drug sensitivity score (CAL-85-1) | drug sensitivity score (MDA-MB-468) | drug sensitivity score (HCC1143) | drug sensitivity score (CAL-120) | drug sensitivity score (Hs578T) | drug sensitivity score (MCF-10A) | drug sensitivity score (MFM-223) | drug sensitivity score (MDA-MB-453) | drug sensitivity score (BT-474)
1 | CCC/C=C/C=C/C(=O)O[C@H]1/C(=C/C(=O)OC)C[C@H]2C[C@H]([C@@H](C)O)OC(=O)C[C@H](O)C[C@@H]3C[C@H](OC(C)=O)C(C)(C)[C@](O)(C[C@@H]4C/C(=C/C(=O)OC)C[C@H](/C=C/C(C)(C)[C@]1(O)O2)O4)O3 [Bryostatin 1] | 0 | 0 | 0 | 0 | 0 | 0 | 0 | 0 | 0 | 0 | 0 | 0
2 | CO[C@@H](C(=O)N1Cc2[nH]nc(NC(=O)c3ccc(N4CCN(C)CC4)cc3)c2C1)c1ccccc1 [Danusertib] | 13.8 | 0 | 0 | 0 | 13.7 | 0 | 3.17 | 15.2 | 0.832 | 0 | 0 | 0
3 | Cc1nc(Nc2ncc(C(=O)Nc3c(C)cccc3Cl)s2)cc(N2CCN(CCO)CC2)n1 [Dasatinib] | 6.25 | 0 | 0 | 6.5 | 0 | 0 | 0 | 6.23 | 7.15 | 0 | 0 | 0
4 | Cc1c(CN2CCN(C(=O)[C@H](C)O)CC2)sc2c(N3CCOCC3)nc(-c3cnc(N)nc3)nc12 [GDC-0980] | 6.08 | 0 | 6.07 | 2.26 | 0 | 3.43 | 0 | 0 | 0 | 6 | 0 | 4.57
5 | Cc1cccc(-c2nn3c(c2-c2ccnc4ccc(C(N)=O)cc24)CCC3)n1 [Galunisertib] | 0 | 0 | 0 | 0 | 0 | 0 | 0 | 0 | 0 | 0 | 0 | 0
6 | Nc1cccc2c1CN(C1CCC(=O)NC1=O)C2=O (stereo not given) [Lenalidomide] | 0 | 0 | 1.27 | 0 | 0 | 0 | 0 | 0 | 0 | 0 | 0 | 0
7 | C[C@]12O[C@H](C[C@]1(O)CO)n1c3ccccc3c3c4c(c5c6ccccc6n2c5c31)CNC4=O [Lestaurtinib] | 0 | 0 | 0 | 5.21 | 0 | 0 | 0 | 4.21 | 0 | 0 | 0 | 0.706
8 | O=C1c2c(O)ccc(O)c2C(=O)c2c(NCCNCCO)ccc(NCCNCCO)c21 [Mitoxantrone] | 3.21 | 0 | 3.55 | 0 | 0 | 0 | 0 | 0 | 0 | 0 | 0 | 0
9 | Nc1ccccc1NC(=O)c1ccc(CNc2nccc(-c3cccnc3)n2)cc1 [Mocetinostat] | 8.87 | 0 | 2.32 | 7.11 | 10.9 | 0.874 | 3.91 | 7.44 | 0 | 0 | 0 | 2.44
10 | COc1nc(N)nc2c1ncn2[C@@H]1O[C@H](CO)[C@@H](O)[C@@H]1O [Nelarabine] | 0 | 0 | 0 | 0 | 0 | 0 | 0 | 0 | 0 | 0 | 0 | 0
11 | Cc1ccc(Nc2nccc(N(C)c3ccc4c(C)n(C)nc4c3)n2)cc1S(N)(=O)=O [Pazopanib] | 0 | 0 | 0 | 0.186 | 0 | 1.06 | 0 | 0 | 0 | 0 | 0 | 0
12 | CS(=O)(=O)N1CCN(Cc2cc3nc(-c4cccc5[nH]ncc45)nc(N4CCOCC4)c3s2)CC1 [Pictilisib] | 4.02 | 0 | 9.53 | 3.76 | 0 | 0 | 0 | 0 | 7.08 | 4.88 | 0 | 1.54
13 | O=C(NC[C@H](O)CO)c1ccncc1Nc1ccc(I)cc1F [Pimasertib] | 0 | 9.13 | 0 | 6.45 | 0 | 0 | 2.8 | 0 | 0 | 0 | 0 | 2.1
14 | O=C(CCBr)N1CCN(C(=O)CCBr)CC1 [Pipobroman] | 0 | 0 | 0 | 0 | 0 | 1.77 | 0 | 0 | 0 | 0 | 0 | 0
15 | c1cc(CN2CCCNCCNCCCNCC2)ccc1CN1CCCNCCNCCCNCC1 [Plerixafor] | 0 | 0 | 0 | 0 | 4.79 | 0 | 0 | 0 | 0 | 0 | 0 | 0
16 | C[C@]12C=CC(=O)C=C1CC[C@@H]1[C@@H]2[C@@H](O)C[C@@]2(C)[C@H]1CC[C@]2(O)C(=O)CO [Prednisolone] | 0 | 0 | 0 | 0 | 0 | 1.2 | 0 | 0 | 0 | 0 | 0 | 0
17 | Cn1cc(CNCC2CCN(c3ncc(C(=O)NO)cn3)CC2)c2ccccc21 [Quisinostat] | 10.9 | 2.71 | 14.8 | 20.1 | 18.9 | 2.18 | 13.6 | 13.2 | 0 | 4.71 | 0.347 | 11
18 | CNC(=O)c1cc(Oc2ccc(NC(=O)Nc3ccc(Cl)c(C(F)(F)F)c3)cc2)ccn1 [Sorafenib] | 0 | 0 | 0 | 0 | 0 | 0 | 0 | 0 | 0 | 0 | 0 | 0
19 | CCN(CC)CCNC(=O)c1c(C)[nH]c(/C=C2\C(=O)Nc3ccc(F)cc32)c1C [Sunitinib] | 0 | 0 | 0 | 0 | 0 | 0 | 0 | 2.45 | 0 | 0 | 0 | 0
20 | CC[C@@]1(O)C(=O)OCc2c1cc1n(c2=O)Cc2cc3c(CN(C)C)c(O)ccc3nc2-1 [Topotecan] | 19.5 | 0 | 24.6 | 7.11 | 8.87 | 0 | 3.76 | 0 | 1.98 | 2.66 | 0 | 0.158
